Common to all, as to test: inhibition of tumour cell growth, NCI panel, 48 h
Test [1] deals with HOP-62 NSCLC.
Test [2] concerns RPMI-8226 leukemia.
Test [3] has as its system U251 CNS.
Test [4] has as its system OVCAR-8 ovarian.
In test [5] the test system is OVCAR-5 ovarian.
Test [6] relates to 786-0 renal.
Test [7] concerns SR leukemia.
For test [8], the system named is MCF7 breast.
Test [9] deals with SNB-19 CNS.
Test [10] relates to A549 NSCLC.

SMILES strings stand for the structures.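 Exposure lasted 48 hours, with cells grown in 96-well plates and compounds tested at five concentrations. Abbreviation: GI50, concentration required for 50% inhibition of growth. TGI: total growth inhibition.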

Turning to `CN(C)C(=S)Sc1ccc([N+](=O)[O-])cc1[N+](=O)[O-]`, the GI50 is 8.26 µM in test [1]; 1.39 µM in test [2]; 1.58 µM in [3]; 3.27 µM in test [4]; 6.01 µM in [5]; 5.3 µM in test [6]. Besides, the GI50 in test [7] is 0.296 µM; in test [8], 0.777 µM; in test [9], 11 µM; in test [10], 3.21 µM. For the same compound, the TGI in [1] is 21.3 µM; in test [2], 6.79 µM; in test [3] it was 8.97 µM; in [4] it was 12 µM; in test [5] it was 18.1 µM; in test [6], 16 µM. The TGI stood at 16.8 µM in test [7], 5.03 µM in [8], 25.1 µM in test [9] and 17.6 µM in [10].

As for `CCc1ccc(/C=C/c2ccc(O)c3ncccc23)[n+](C)c1`, the TGI in test [1], in [2], in test [3], in [4], in [5] and in test [6] was above 100 µM each time. For the same compound, the TGI in test [7] is above 25.9 µM; in test [8], above 90.7 µM; in [9], above 100 µM; in [10], above 100 µM. Moreover, the GI50 in test [2] was 3.08 µM; in test [3] it was 0.661 µM; in test [4], 0.668 µM; in test [5], above 100 µM; in [6] it was above 100 µM; in [7] it was 2.76 µM. Further, the figures for the GI50 in test [8], in [9] and in test [10] were 7.99 µM, 11.5 µM and 0.0377 µM, respectively.

For the compound `Nc1c(C(=O)c2ccccc2)cnn1-c1ccc(F)cc1`, the GI50 in test [1], in test [2], in test [3], in test [4], in test [5] and in test [6] was above 25 µM throughout. In addition, the GI50 in test [7], in test [8], in test [9] and in test [10] was above 25 µM in each case. The TGI in test [1], in [2], in test [3], in test [4], in [5] and in test [6] was above 25 µM in each case. Besides, the TGI in [7], in [8], in test [9] and in [10] was above 25 µM in each case.

On to `O=C1c2cccc3cccc(c23)C(=O)N1CCCCCN1CCN(CCCCCOc2ccc(-c3nc4ccc(N5CCOCC5)cc4[nH]3)cc2)CC1`, for which the GI50 is 35.7 µM in test [1]; 0.787 µM in test [2]; 5.47 µM in test [3]; 1.32 µM in [4]; above 100 µM in [5]; 22.9 µM in test [6]. For the same compound, the GI50 was 1.18 µM in test [7], 2.49 µM in test [8], above 46.1 µM in test [9] and 2.22 µM in test [10]. Moreover, the TGI in [1] was 79.2 µM; in test [2] it was 3.72 µM; in [3], 10.2 µM; in test [4] it was 4.95 µM; in [5], above 100 µM; in [6] it was 51.3 µM. The TGI in [7] was 3.2 µM; in test [8], 8 µM; in [9] it was above 60 µM; in test [10], 5.26 µM.

Regarding `O=C(NNc1ccccc1)C(=O)NNc1ccccc1`, the GI50 in test [1] is above 100 µM; in [2], above 100 µM; in test [3], above 100 µM; in test [4], above 100 µM; in test [5], above 100 µM; in test [6], 53.9 µM. Also, the GI50 was 0.919 µM in test [7], 5.67 µM in test [8], above 100 µM in [9] and 3.53 µM in [10]. Moreover, the TGI in [1], in [2], in [3], in test [4], in test [5] and in test [6] was above 100 µM each time. For the same compound, the TGI in test [7], in test [8], in [9] and in [10] was above 100 µM in each case.

As for `Cc1ccc2c(C3C(C#N)=C(N)Oc4cc5ccccc5cc43)cc(=O)oc2c1` (centres undefined), the GI50 in [1] is 1.22 µM; in test [2], 3.23 µM; in test [3], 2.28 µM; in test [4] it was 4.47 µM; in test [5] it was 3.76 µM; in [6], 1.83 µM. The GI50 is 0.525 µM in [7], 0.428 µM in [8], 1.79 µM in test [9] and 2.95 µM in test [10]. The TGI is above 100 µM in test [1]; 30.2 µM in test [2]; above 100 µM in test [3]; above 100 µM in test [4]; above 100 µM in [5]; above 100 µM in [6]. Also, the TGI in [7], in test [8], in test [9] and in test [10] was above 100 µM throughout.

With `Cc1nc2cc(Nc3nc(Nc4ccc(F)cc4)nc(-c4cccs4)n3)ccc2n1Cc1ccccc1`, the GI50 in test [1] was 8.45 µM; in test [2], 2.07 µM; in [3] it was 3.13 µM; in test [4], 3.54 µM; in [5], 9.62 µM; in [6], 3.07 µM. For the same compound, the GI50 in [7] is 2.56 µM; in [8] it was 2.15 µM; in test [9], 5.29 µM; in test [10] it was 2.98 µM. The TGI in test [1] is above 100 µM; in [2], 5.91 µM; in test [3], 13.7 µM; in [4], 19 µM; in test [5] it was 27.3 µM; in test [6] it was 9.11 µM. The TGI in test [7] was 7.44 µM; in test [8], 7.91 µM; in test [9], above 100 µM; in test [10], 15.1 µM.

(Values after PubChem BioAssay (NCI).)
